Tests used:
GBM neurospheres (M1123) = assay: Mice implanted with GBM neurospheres (M1123), subcutaneous tumor model; assay type: in vivo
[1] = tested on: glioblastoma U87-SC cells; assay: U87 subcutaneous xenograft tumor model of GBM; assay type: in vivo, mice; details: 4 every other day intravenous doses at 4 mg/kg
Text: (§1) To evaluate the in vivo therapeutic activity of Hydroxyureamethyl-acylfulvene in mice bearing glioblastoma U87-SC cells (without any drug treatment in vitro) were inoculated subcutaneously.

blood-brain barrier = assay: Neuromics in vitro 3D blood-brain barrier model (brain endothelial cells, pericytes, astrocytes); assay type: in vitro ADME, human; details: for blood-brain barrier penetration (in words): in vitro model system
Text: as §1
(§2) By way of background, the physically, metabolically and immunologically privileged status of the brain presents diagnostic and therapeutic limitations along with treatment-related neurotoxicity issues. A critical property of any drug for GBM would be its ability to penetrate the blood-brain barrier (BBB). […] In the highly representative Neuromics in vitro 3D model that closely recapitulates the human blood-brain barrier, transport properties of the blood-brain barrier are reflected due to the formation of tight junctions, higher expression of specific carriers, or great cell viability. This 3D in vitro model of the blood-brain barrier created by co-culturing brain endothelial cells with pericytes and astrocytes layered in an insert, improves endothelial cell polarization and enhances the formation of tight junctions, provides better endothelial cell-to-cell contact that is important for barrier development, and prevents the dilution of secreted neurotrophic factors. These conditions collectively lead to the development of an in vitro model that can truly mimic the blood-brain barrier. This assay leverages the novel 3D blood-brain barrier model that allows studying both compound transport across the barrier as well as the effect of compounds on the structure and function of the blood-brain barrier. Along with LP-184 and TMZ, the current standard of care chemotherapeutic for GBM, we also compared the behavior of known positive and negative control agents Antipyrine and Cyclosporin A respectively as benchmarks. […] Apparent blood brain barrier permeability measured for TMZ was 1.72*10-4 cm/s at 30 minutes and for LP-184 was 1.53*10-4 cm/s at 30 minutes, as illustrated in the following graph.

[2] = as above; assay type: in vitro ADME, human; details: human
Text: as §1, §2

SMILES: CC1=C(CN(O)C(N)=O)C2=C(C)C3(CC3)[C@@](C)(O)C(=O)C2=C1 [LP-184, hydroxyureamethyl-acylfulvene]
- tumor response (GBM neurospheres (M1123); 4 every other day intravenous doses at 4 mg/kg): complete tumor regression
- mice with no measurable tumor after 12 days of the last dose (GBM neurospheres (M1123); 4 every other day intravenous doses at 4 mg/kg, four mice): Three of four mice
- tumor volume relative to vehicle-treated control mice (physical observation) (GBM neurospheres (M1123); FIG. 7): clear tumor growth inhibition
- tumor response [1]: complete tumor regression
- mice with no measurable tumors 12 days post the last dosing ([1]; 5 mice treated): all 5 mice
- blood-brain barrier integrity (blood-brain barrier; FIG. 3): not compromised
- impact on cell viability (blood-brain barrier; blood-brain barrier model, FIG. 3/4): insignificant impact on cell viability
- blood-brain barrier penetration (in words) (blood-brain barrier): as effective as TMZ in penetrating the blood-brain barrier
- blood-brain barrier penetration (in words) (blood-brain barrier; listed as Hydroxyureamethyl-acylfulvene): shown to cross the blood-brain barrier

SMILES: Cn1nnc2c(C(N)=O)ncn2c1=O [TMZ, temozolomide, reference compound]
- Papp at 30 min [2]: 172 ×10⁻⁶ cm/s

— patent publication US20230181499A1, “Hydroxyureamethyl-Acylfulvene for Treating Brain Cancer or CNS Cancer” (Lantern Pharma Inc., priority 2020, published 2023)
